Earlier results in PubChem BioAssay AID1259409 (Chemical Carcinogenesis Research Information System (CCRIS), 2018).

Tested on: rodent chemically induced tumor inhibition, incidence and multiplicity
Experiment: CCRIS tumor inhibitor studies

## C/C(=C\c1ccc(C(=O)O)cc1)c1ccc2c(c1)C(C)(C)CCC2(C)C
Carcinogen: 7,12-DIMETHYLBENZ[A]ANTHRACENE, 57-97-6, Dose [Inhibitor]: 0.17 NMOL IN 0.2 ML ACETONE 1 HR PRIOR TO EACH PROMOTER DOSE FOR 12 WK (STUDY DURATION: 14 WK), Route [Inhibitor]: DERMAL, Species: MOUSE, Strain/Sex: SENCAR/FEMALE, Target Tissue: Type of Lesion: SKIN: PAPILLOMA, Dose [Carcinogen]: 200 NMOL IN 0.2 ML ACETONE ONCE, Promoter: 12-O-TETRADECANOYLPHORBOL-13-ACETATE, 16561-29-8
  tumour outcome (control, treated, inhibition, significance): 100%, 100%, 0%, not calculated
Carcinogen: 7,12-DIMETHYLBENZ[A]ANTHRACENE, 57-97-6, Dose [Inhibitor]: 0.17 NMOL IN 0.2 ML ACETONE 1 HR PRIOR TO EACH PROMOTER DOSE FOR 20 WK (STUDY DURATION: 22 WK), Route [Inhibitor]: DERMAL, Species: MOUSE, Strain/Sex: CD-1/FEMALE, Target Tissue: Type of Lesion: SKIN: PAPILLOMA, Dose [Carcinogen]: 200 NMOL IN 0.2 ML ACETONE ONCE, Promoter: 12-O-TETRADECANOYLPHORBOL-13-ACETATE, 16561-29-8
  tumour outcome (control, treated, inhibition, significance): 94%, 80%, 15%, not calculated
Carcinogen: 7,12-DIMETHYLBENZ[A]ANTHRACENE, 57-97-6, Dose [Inhibitor]: 1.7 NMOL IN 0.2 ML ACETONE 1 HR PRIOR TO EACH PROMOTER DOSE FOR 12 WK (STUDY DURATION: 14 WK), Route [Inhibitor]: DERMAL, Species: MOUSE, Strain/Sex: SENCAR/FEMALE, Target Tissue: Type of Lesion: SKIN: PAPILLOMA, Dose [Carcinogen]: 200 NMOL IN 0.2 ML ACETONE ONCE, Promoter: 12-O-TETRADECANOYLPHORBOL-13-ACETATE, 16561-29-8
  tumour outcome (control, treated, inhibition, significance): 100%, 78%, 22%, not calculated
Carcinogen: 7,12-DIMETHYLBENZ[A]ANTHRACENE, 57-97-6, Dose [Inhibitor]: 1.7 NMOL IN 0.2 ML ACETONE 1 HR PRIOR TO EACH PROMOTER DOSE FOR 20 WK (STUDY DURATION: 22 WK), Route [Inhibitor]: DERMAL, Species: MOUSE, Strain/Sex: CD-1/FEMALE, Target Tissue: Type of Lesion: SKIN: PAPILLOMA, Dose [Carcinogen]: 200 NMOL IN 0.2 ML ACETONE ONCE, Promoter: 12-O-TETRADECANOYLPHORBOL-13-ACETATE, 16561-29-8
  tumour outcome (control, treated, inhibition, significance): 94%, 31%, 67%, not calculated
Carcinogen: 7,12-DIMETHYLBENZ[A]ANTHRACENE, 57-97-6, Dose [Inhibitor]: 17 NMOL IN 0.2 ML ACETONE 1 HR PRIOR TO EACH PROMOTER DOSE FOR 12 WK (STUDY DURATION: 14 WK), Route [Inhibitor]: DERMAL, Species: MOUSE, Strain/Sex: SENCAR/FEMALE, Target Tissue: Type of Lesion: SKIN: PAPILLOMA, Dose [Carcinogen]: 200 NMOL IN 0.2 ML ACETONE ONCE, Promoter: 12-O-TETRADECANOYLPHORBOL-13-ACETATE, 16561-29-8
  tumour outcome (control, treated, inhibition, significance): 100%, 0%, 100%, not calculated

## O=C(O)CNC(=O)c1ccccc1
Carcinogen: N-BUTYL-N-(4-HYDROXYBUTYL)NITROSAMINE, 3817-11-6, Dose [Inhibitor]: 5% DIET DAILY FOR 34 WK STARTING AT COMPLETION OF CARCINOGEN TREATMENT (STUDY DURATION: 38 WK), Route [Inhibitor]: ORAL, Species: RAT, Strain/Sex: F344/MALE, Target Tissue: Type of Lesion: URINARY BLADDER: PAPILLOMA, Dose [Carcinogen]: 0.01% IN DRINKING WATER FOR 4 WK, Promoter: NONE USED
  tumour outcome (control, treated, inhibition, significance): 33%, 23%, 30%, not significant
